For experiment [1], the system named is TLR4-driven inflammatory response. The conditions noted are these: mice, cited from earlier work.
Experiment [2] relates to TLR4 signaling. The conditions noted are these: primary murine macrophages; cited from earlier work.
For experiment [3], the system named is IL-1β mRNA. Description: IL-1β mRNA level by RT-qPCR in hypoxic cardiomyocytes. The experiment is classed as cell-based. To be noted: hypoxic conditions. As to the method: Real-time RT-PCR experiments were performed in duplicates on an ABI 7900 instrument (Applied Biosystems™) using Taqman™ Master Mix (Applied Biosystems™). The average threshold cycles (Ct) of the duplicates were used to calculate the relative expression levels of the following genes: TLR4 (Applied Biosystems™ assay primer ID: Mm00569848_m1 Tlr4), TLR2 (assay primer ID: Mm01769726_m1 Tlr2), TNF-α (assay primer ID: Mm00443260_g1 Tnf) and IL-1β (assay primer ID: Mm00434228_m1 II1b) in vitro and in vivo following hypoxia or ischemia, respectively. The reference gene was TBP and the primer used was derived from mouse TATA-box binding protein (Applied Biosystems™ assay primer ID: Mm00446973_m1 Tbp). Amounts of TLR2, TLR4, TNF-α and IL-1β mRNAs in each sample were calculated relative to TBP mRNA, based on the corresponding Cts, as Relative Quantity (RQ) values, and normalized taking as 1 a randomly selected sample of the control group (TBP mRNA). […]
Decoy peptides represented by compounds PM1-PM10 were tested in vitro for their ability to decrease the level of CK and LDH released by stressed cardiomyocytes following exposure to LPS or hypoxic stimulation, and further evaluated for their ability to affect the level of IL-1β and TLR4 mRNA, and expression of IκB and TLR4 proteins, according to the protocols described in Materials and Methods and in Example 5 herein above.
A general note: Quantitative PCR measures a nucleic acid by following its amplification.

Experiment [4] relates to primary cardiomyocytes. Description: CK and LDH release by primary cardiomyocytes under LPS treatment (sepsis like). The experiment is classed as cell-based, Rat. The conditions noted are these: LPS treatment; 20 μM. As to the method:
(§1) Rat hearts (1-2 days old) were removed under sterile conditions and washed three times in phosphate-buffered saline (PBS) to remove excess blood cells. The hearts were minced and then gently agitated in RBD (a solution of proteolytic enzymes (Biological Institute, Ness-Ziona, Israel) prepared from fig tree extract, and diluted 1:100 in Ca^2+- and Mg^2+-free PBS) for a few cycles of 10 min each. Dulbecco's modified Eagle's medium (Biological Industries, Kibbutz Beit Haemek, Israel) containing 10% horse serum was added to supernatant suspensions containing the dissociated cells. The mixture was centrifuged at 1400 rpm for 4 min. The supernatant phase was discarded, and the cells were re-suspended. The cell suspension was diluted to 1.0×10^6 cells/ml, unless stated otherwise, and 1.5 ml of the suspension was placed in 35-mm plastic culture dishes collagen- or gelatin-coated, or on coated cover glasses. The cultures were incubated in a humidified atmosphere of 5% CO2 and 95% air at 37° C.
(§2) Primary cardiomyocytes which were obtained by method described above, were treated with exemplary decoy peptides described herein. After 30 minutes of incubation, sepsis like (LPS treatment for 6 hours), or myocardial infarction (MI) like (hypoxia for 3 hours) conditions were imposed to measure the release of CK and LDH to the medium and determine the potential cardioprotective effect of the tested decoy peptides. Cytotoxicity and level of cell damage were assessed by spectrophotometric measurement of lactate dehydrogenase (LDH) and creatine kinase (CK) activities (at 30° C.). Results are presented as CK and LDH release in arbitrary units (a.u.)
(§3) Activity of LDH and CK was determined in the cell-culture medium (25 μl) transferred into 96-well plates, using commercial L-LDH/CK kits (such as those manufactured, e.g., by Sigma-Aldrich, BioVision™ or Thermo Fisher Scientific®).
(§4) Primary cardiomyocytes were treated with peptides and peptidomimetics of SEQ ID NOs:1-7 provided at concentrations ranging from 1 μM to 20 μM. Following 30 minutes of incubation, sepsis like (LPS treatment for 6 hours) or MI like (hypoxia for 3 hours) conditions were induced to determine the potential cardioprotective effect of the tested compounds. Creatine kinase (CK) and lactate dehydrogenase (LDH) activity were assayed to determine the level of cellular damage and cell protection effect. The experimental procedure is described in Materials and Methods above. Results are presented as CK and LDH release in arbitrary units (a.u.).

Experiment [5] has as its system TLR4 mRNA. Nature of the experiment: TLR4 mRNA level by RT-qPCR in hypoxic cardiomyocytes. The conditions noted are these: hypoxic conditions. The experiment is classed as cell-based. As to the method:
Real-time RT-PCR experiments were performed in duplicates on an ABI 7900 instrument (Applied Biosystems™) using Taqman™ Master Mix (Applied Biosystems™). The average threshold cycles (Ct) of the duplicates were used to calculate the relative expression levels of the following genes: TLR4 (Applied Biosystems™ assay primer ID: Mm00569848_m1 Tlr4), TLR2 (assay primer ID: Mm01769726_m1 Tlr2), TNF-α (assay primer ID: Mm00443260_g1 Tnf) and IL-1β (assay primer ID: Mm00434228_m1 II1b) in vitro and in vivo following hypoxia or ischemia, respectively. The reference gene was TBP and the primer used was derived from mouse TATA-box binding protein (Applied Biosystems™ assay primer ID: Mm00446973_m1 Tbp). Amounts of TLR2, TLR4, TNF-α and IL-1β mRNAs in each sample were calculated relative to TBP mRNA, based on the corresponding Cts, as Relative Quantity (RQ) values, and normalized taking as 1 a randomly selected sample of the control group (TBP mRNA). Calculation were performed using the Applied Biosystems Analysis™ software (StepOnePlus V2.2.2). All mRNA scores are presented in arbitrary units.
Next, peptidomimetics of SEQ ID NOs:1 and 2 were tested for their ability to affect the expression of TLR4. The level of TLR4 mRNA was measured by real-time reverse transcriptase polymerase chain reaction (RT-qPCR) method as described in Materials and Methods. The possible effect of both compounds on expression levels of TLR2 mRNA was used as a negative control.

For experiment [6], the system named is primary cardiomyocytes. Nature of the experiment: CK and LDH release by primary cardiomyocytes under hypoxia (MI like). The experiment is classed as cell-based, Rat. To be noted: 20 μM. As to the method:
as §1
Using a vacuum pump, the oxygen rich air was evacuated from an incubator containing plates with cell cultures, and a 100% Argon atmosphere was let in, while maintaining a temperature of 37° C. The cell cultures were washed with PBS twice to remove glucose from the medium. Hypoxic treated cells were cultures in PBS without glucose. These cells lasted for 180 minutes.
as §2, §3, §4
(In general: LDH leaks from cells whose membrane has failed.)

No end group written: not given here.

“IVFAEMPCG (Ac-IVFAEMPCG) [prior art decoy peptide derived from the TRAM TIR domain (Piao et al., 2013); used N-acetylated as positive control]”: the “LPS-induced activation of MyD88-dependent and TRIF-dependent cytokines and MAPKs” value in experiment [1] is “inhibited”. Further, in experiment [1] (lethal LPS dose), the survival result is given as “dramatically improving”. The circulating cytokine levels entry in experiment [1] (sublethal dose of LPS) is “significantly diminishing”. In experiment [2], the TLR4 signaling entry is “inhibited”.

As to `Cc1cn(Cc2ccccc2)c(=O)nc1NCCC(C)C` [PM2, 1-benzyl-4-(isopentylamino)-5-methylpyrimidin-2(1H)-one], in experiment [3], the “inhibition of IL-1β mRNA production” value amounted to 1.3 fold. In experiment [4], the CK release result is recorded as “no significant effect” and the LDH release result was “no significant effect”. Besides, the “inhibition of TLR4 mRNA production” value in experiment [5] was 2 fold. In addition, in experiment [6], the CK release entry is on record as “significant reduction” and the LDH release result is “significant reduction”.

The values above are taken from patent publication US11925643B2, “Toll-like receptor 4 (TLR4) inhibitors and use thereof” (MOR RESEARCH APPLICATIONS LTD., priority 2018, dated 2024).
